These results are taken from publication PMC9841533, “Microtubule-Stabilizing 1,2,4-Triazolo[1,5-a]pyrimidines as Candidate Therapeutics for Neurodegenerative Disease: Matched Molecular Pair Analyses and Computational Studies Reveal New Structure–Activity Insights” (Journal of Medicinal Chemistry, 2022).

Series [1] has as its system acetylated α-tubulin (AcTub) levels in QBI293 cells. As to the kind of experiment: QBI293 cell assay of MT stabilization: acetylated α-tubulin ELISA. Type of series: cell-based. Put shortly: (§1)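 AcTub and α-Tub were quantified by ELISA in whole-cell extracts normalized by BCA protein and expressed relative to vehicle. AcTub changes were also scaled to a 100 nM reference stabilizer control.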

Series [2] has as its system total α-tubulin (α-Tub) levels in QBI293 cells. In words: QBI293 cell assay: total α-tubulin ELISA. It is filed as cell-based. Put shortly: as §1
The nature of series [3]: Brain-to-plasma ratio in mice. Conditions: mouse, ip, 1 h post-administration, i.p. 1.5 mg/kg, read-out: brain-to-plasma ratio (B/P). Type of series: in vivo.
In series [4] the test system is de-tyrosinated α-tubulin (GluTub) in brain of WT mice. As to the kind of experiment: Brain PD: Glu-tubulin in brain tissue after compound treatment. Type of series: in vivo, mouse. Conditions: WT CD-1 mice, 1 mg/kg i.p. once daily for two consecutive days. On the procedure: Finally, to evaluate target engagement in the CNS, PD studies were conducted to determine compound-dependent elevations in the stable MT marker, de-tyrosinated α-tubulin (GluTub), in brain homogenates from compound-treated WT mice.
All animal protocols were approved by the University of Pennsylvania Institutional Animal Care and Use Committee (IACUC). […] Compounds were diluted from 20 or 40 mM DMSO stock solutions into 30% Kolliphor EL (Sigma-Aldrich) phosphate-buffered saline, pH 7.4. After 4 h following the second injection, mice were euthanized and cortices and hippocampi were isolated from each brain and placed in 0.2 mL of ice-cold radioimmunoprecipitation assay (RIPA) buffer (50 mM Tris, 150 mM NaCl, 5 mM EDTA, 0.5% sodium deoxycholate, 1% NP-40, 0.1% sodium dodecyl sulfate (SDS), pH 8.0) containing protease inhibitor (PI) cocktail (Sigma-Aldrich), 1 mM phenylmethylsulfonyl fluoride (PMSF) (Sigma-Aldrich), and 3 μM trichostatin A (TSA) (Sigma-Aldrich). The brain samples were homogenized with a handheld battery-operated mixer and subsequently sonicated. After centrifugation at 100,000g for 30 min at 4 °C, supernatant samples were transferred to a new tube and the pellets were resuspended in 0.15 mL of RIPA buffer and again homogenized, sonicated, and centrifuged. The supernatant from the second centrifugation was pooled with that from the first. The combined supernatant samples were assessed for protein concentration using a BCA assay (Thermo Fisher Scientific), and equal protein amounts from each brain sample underwent separation by 10% sodium dodecyl sulfate polyacrylamide gel electrophoresis (SDS-PAGE) followed by transfer onto nitrocellulose membranes essentially as previously described.[11] […] Incubation with infrared dye-conjugated secondary antibodies and subsequent imaging and quantification of the blots on the Odyssey imaging system were as described.[11]

Series [5] is described as follows: Resazurin cell viability assay, QBI293. Conditions: human, QBI293 cells, three biological replicates, read-out: QBI293 CC50 ± SD. It is filed as cell-based. The procedure:
Cell Culture. QBI293 and HeLa cells were cultured in DMEM supplemented with 10% heat-
inactivated FBS and 1% penicillin-streptomycin. Cells were grown in T175 cell culture flasks maintained
at 37 ℃ in 5% CO2 and sub-c ultured when at 60-8 0% cell confluence.
Resazurin Cell Viability Assay. Cytotoxicity in QBI293 and HeLa cells was measured using the
resazurin cell viability assay.1 Test compounds were serially diluted in DMSO and added to 96-well
polystyrene assay plates to give final assay concentrations ranging from 100 nM to 4000 nM (1 µL; 1%
total DMSO). Fresh medium was added to the assay plate (49 µL/well). QBI293 or HeLa cells were
cells/well. Assay plates were incubated at 37 °C and 5% CO2 for 48 h, followed by addition of 20 µL 0.5
mM resazurin (Alfa Aesar, Cat. B21187) in PBS to each well. Assay plates were incubated in the dark for
(1 picture or pasted object on this page, not shown here)
4 h at 37 °C. Fluorescence was measured at 531 nm and 595 nm excitation and emission wavelengths,
respectively, using a 2104 EnVision® multilabel plate reader. The viability of each well was normalized to
positive and negative controls in each assay plate. Dose-response curves were generated and CC50 values
calculated with GraphPad Prism, version 9.3 (San Diego, CA) using a sigmoidal four parameter logistic
curve. The means ± standard deviations from three biological replicates are shown.
(1) O'Brien, J.; Wilson, I.; Orton, T.; Pognan, F. Investigation of the Alamar Blue (resazurin) fluorescent
dye for the assessment of mammalian cell cytotoxicity. Eur. J. Biochem. 2000, 267 (17), 5421-5426.

Where two headings read alike, the source gives them in different places.

As to `C[C@@H](Nc1c(-c2c(F)cc(C#CCCO)cc2F)c(Cl)nc2ncnn12)C(C)(C)C` [Compound 53, (R)-4-(4-(5-Chloro-7-((3,3-dimethylbutan-2-yl)amino)-[1,2,4]triazolo[1,5-a]pyrimidin-6-yl)-3,5-difluorophenyl)but-3-yn-1-ol], in series [1] (1 uM compound, normalized), the “AcTub (1 uM - normalized)” value came to 0.57. Moreover, in series [1] (10 uM compound, normalized), the “AcTub (10 uM - normalized)” value was 0.81. The fold induction at 1 µM came to 3.67 in series [1] (4 h, 1 uM compound, read-out: AcTub (1uM)); 3.67 ± 0.34 in series [1] (4 h incubation, 1 μM, read-out: AcTub 1 μM, fold-change compared to vehicle (DMSO)-treated cells); 0.98 in series [2] (4 h, 1 uM compound, read-out: AlfaTub (1uM)); 0.98 ± 0.04 in series [2] (4 h incubation, 1 μM, read-out: α-Tub 1 μM, fold-change compared to vehicle (DMSO)-treated cells). Moreover, the fold induction at 10 µM in series [1] (4 h, 10 uM compound, read-out: AcTub (10 uM)) came to 5.25; in series [1] (4 h incubation, 10 μM, read-out: AcTub 10 μM, fold-change compared to vehicle (DMSO)-treated cells) it was 5.25 ± 0.89; in series [2] (4 h, 10 uM compound, read-out: AlfaTub (10 uM)) it was 0.98; in series [2] (4 h incubation, 10 μM, read-out: α-Tub 10 μM, fold-change compared to vehicle (DMSO)-treated cells), 0.98 ± 0.21. For the same compound, the “AcTub 1 μM, fold-change compared to positive control compound 5 (100 nM) (in parentheses)” value in series [1] (4 h incubation, 1 μM) worked out at 0.57 fold-change. The “AcTub 10 μM, fold-change compared to positive control compound 5 (100 nM) (in parentheses)” value in series [1] (4 h incubation, 10 μM) came to 0.81 fold-change. Besides, the Kp at 1 h in series [3] is around 0.5. In addition, in series [4], the “brain GluTub (GluTub-to-total α-Tub ratio) relative to vehicle-treated mice” value is on record as “significant elevations in brain GluTub”. The CC50 at 48 h in series [5] was 30.1 ± 4.8 nM.
